Source: ChEMBL document CHEMBL1201862, “PubChem BioAssay data set” (2004)
The source made the active and inactive calls.

Legend:
Mu-type opioid receptor = Mu-type opioid receptor (Homo sapiens, UniProt P35372); assay: Late-stage results from the probe development effort to identify antagonists of OPRK1: luminescence-based cell-based dose response OPRM1 counterscreen.; type: functional
[1] = molecular target: Delta-type opioid receptor (Homo sapiens, UniProt P41143); assay: Late-stage results from the probe development effort to identify antagonists of OPRK1: fluorescence-based cell-based dose response OPRD1 counterscreen.; type: functional
[2] = molecular target: Kappa-type opioid receptor (Homo sapiens, UniProt P41145); assay: kappa opioid receptor antagonism potency – cell-based, fluorescence, dose response, late-stage follow-up (AID 652032); type: functional
[3] = toxicity to human hepatoma HepG2 cells – cell-based, cherry-picked samples, cytotoxicity control, dose response (AID 1159577); type: functional
[4] = P. falciparum Dd2 growth inhibitors, dose response, SYBR Green, cherry-picked samples (AID 1159567); type: functional, cell-based
[5] = A549 cell viability loss – cherry-picked samples, cytotoxicity control, dose response (AID 1053184); type: functional, cell-based
[6] = HEK293 cell viability loss – cherry-picked samples, cytotoxicity control, dose response (AID 1053185); type: functional, cell-based
[7] = HepG2 cell viability loss – cherry-picked samples, cytotoxicity control, dose response (AID 1053183); type: functional, cell-based
[8] = molecular target: Endoplasmic reticulum aminopeptidase 1 (Homo sapiens, UniProt Q9NZ08); assay: inhibition of human ERAP1 enzyme activity – biochemical, cherry-pick, set 2, plate reader, dose response (AID 743314)
cells [9] = assay: cells
cells [10] = settings: HEK293
[11] = off-target signal loss in HeLa-CEM21 co-culture – HeLa F-luc CTL cells, cherry-picked, counter-screen for HIV-1 Env fusion inhibitor project, dose response (AID 652040); type: functional, cell-based;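 note: potency for signal decrease marking cytotoxic or nonspecific inhibition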
[12] = blockade of melanocortin 4 receptor signaling – cell-based, plate reader, cherry pick, counter-screen for LGR2 antagonist project, dose response (AID 743444); type: functional;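 note: transfected HEK 293 cells stimulated with alpha-MSH peptide; potency of inhibitors of the alpha-MSH evoked signal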
[13] = blockers of bursicon-stimulated LGR2 cAMP reporter – cell-based, HEK293, CRE-luciferase reporter, cherry pick, set 2, dose response (AID 743343); type: functional;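 note: transfected cells were stimulated with diluted bursicon conditioned medium after compound addition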
[14] = toxicity toward HepG2 liver cells – cell-based, plate reader, cherry-pick, antagonist series, cytotoxicity control, dose response (AID 743416); type: functional
INS1 = assay: INS-1E survival protection against cytokine death – cell-based, luminescence, retest, dose response (AID 449756); type: functional; settings: Rattus norvegicus;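 note: cell death triggered by IL-1 beta plus TNF-alpha plus IFN-gamma mixture; protective hits raise ATP signal compared with cytokine alone wells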
[15] = blockers of HIV-1 envelope-mediated cell-cell fusion – cherry-pick, dose response (AID 652057); type: functional, cell-based
[16] = viability loss in CEM21 cells – cell-based, CellTiter-Glo luminescence, cherry-picked, cytotoxicity control for viral fusion inhibitor project, dose response (AID 652042); type: functional;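 note: potency for signal decrease meaning cytotoxicity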
[17] = A549 cell cytotoxicity, dose response, cytotoxicity control, plate reader, cherry-pick, antagonist series (AID 743412); type: functional, cell-based
[18] = blockers of HIV-1 ZM109 envelope-driven cell-cell fusion – HeLa effector, CEM target cells, luciferase, cherry-pick, dose response (AID 652058); type: functional, cell-based;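 note: luciferase signal from HIV-1 Env mediated cell-cell fusion of effector and target cells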
[19] = viability loss in HEK293 cells – cell-based, plate reader, cherry-picked samples, cytotoxicity control, dose response (AID 743446); type: functional
[20] = HIV-1 AD8 envelope cell-cell fusion blockers – cherry-pick, dose response (AID 652062); type: functional, cell-based;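 note: luciferase signal from cell-cell fusion driven by HIV-1 clade B AD8 Env; potency is for inhibitors of fusion seen as a drop in luminescence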
[21] = viability loss in HepG2 hepatoma cells – cell-based, ATP luminescence, cherry-pick, activator set 2, cytotoxicity control, dose response (AID 1053143); type: functional
[22] = molecular target: Intestinal-type alkaline phosphatase (Homo sapiens, UniProt P09923); assay: human intestinal alkaline phosphatase activators, dose response, biochemical, luminescence, uHTS hits (AID 463120); type: functional
[23] = blockers of FN fibrillogenesis by fibroblasts – AH1F cells, Alexa488-FN fluorescence, cherry-picks, dose response (AID 1035475); type: functional, cell-based
[24] = viability loss in HEK293 kidney cells – cell-based, cherry-picks, set 5, cytotoxicity control, dose response (AID 1053117); type: functional
[25] = viability loss in HepG2 hepatoma cells – cell-based, cherry-picks, set 5, cytotoxicity control, dose response (AID 1053118); type: functional
Cryptococcus neoformans [26] = assay: Cryptococcus growth inhibition by alamar blue – cell lysis, cherry-picks, replicate tests, mechanism study for C. neoformans antifungal project, dose response (AID 686999); type: functional, organism-based
Cryptococcus neoformans [27] = assay: PubChem AID 686997; type: functional, organism-based

Chain of Intestinal-type alkaline phosphatase (P09923 whole entry): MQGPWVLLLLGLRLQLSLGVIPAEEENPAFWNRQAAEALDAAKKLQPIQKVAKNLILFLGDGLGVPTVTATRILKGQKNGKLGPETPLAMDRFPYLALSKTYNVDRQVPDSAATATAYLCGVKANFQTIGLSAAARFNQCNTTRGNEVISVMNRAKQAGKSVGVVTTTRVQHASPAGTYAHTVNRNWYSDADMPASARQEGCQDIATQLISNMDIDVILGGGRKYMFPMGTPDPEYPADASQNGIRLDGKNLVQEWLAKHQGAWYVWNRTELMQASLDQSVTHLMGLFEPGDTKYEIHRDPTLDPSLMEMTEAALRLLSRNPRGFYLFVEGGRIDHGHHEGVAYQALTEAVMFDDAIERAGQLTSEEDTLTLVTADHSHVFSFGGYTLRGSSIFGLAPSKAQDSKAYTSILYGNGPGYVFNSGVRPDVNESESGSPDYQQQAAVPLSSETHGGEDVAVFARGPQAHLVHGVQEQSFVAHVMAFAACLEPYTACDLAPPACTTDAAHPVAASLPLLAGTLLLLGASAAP
Chain of Mu-type opioid receptor (P35372 whole entry): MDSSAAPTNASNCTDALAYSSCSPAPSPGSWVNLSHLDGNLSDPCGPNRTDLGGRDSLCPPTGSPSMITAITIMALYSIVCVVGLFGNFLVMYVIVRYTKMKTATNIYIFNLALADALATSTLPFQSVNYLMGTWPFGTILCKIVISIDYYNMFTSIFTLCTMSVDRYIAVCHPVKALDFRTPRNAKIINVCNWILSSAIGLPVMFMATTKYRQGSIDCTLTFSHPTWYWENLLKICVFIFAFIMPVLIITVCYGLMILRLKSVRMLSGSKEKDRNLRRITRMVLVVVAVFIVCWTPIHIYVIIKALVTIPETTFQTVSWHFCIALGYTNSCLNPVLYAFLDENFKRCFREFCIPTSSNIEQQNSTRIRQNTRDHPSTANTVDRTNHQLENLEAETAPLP
Chain of Kappa-type opioid receptor (P41145 whole entry): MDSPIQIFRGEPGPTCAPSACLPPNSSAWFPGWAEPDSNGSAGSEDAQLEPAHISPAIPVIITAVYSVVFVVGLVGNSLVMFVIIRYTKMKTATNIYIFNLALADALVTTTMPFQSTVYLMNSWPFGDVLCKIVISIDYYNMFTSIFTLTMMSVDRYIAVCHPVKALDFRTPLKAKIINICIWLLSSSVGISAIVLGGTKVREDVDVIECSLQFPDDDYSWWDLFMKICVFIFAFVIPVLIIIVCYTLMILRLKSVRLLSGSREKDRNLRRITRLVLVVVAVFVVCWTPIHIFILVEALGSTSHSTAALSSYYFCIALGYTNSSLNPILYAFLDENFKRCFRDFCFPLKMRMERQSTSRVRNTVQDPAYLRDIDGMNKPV
Chain of Delta-type opioid receptor (P41143 whole entry): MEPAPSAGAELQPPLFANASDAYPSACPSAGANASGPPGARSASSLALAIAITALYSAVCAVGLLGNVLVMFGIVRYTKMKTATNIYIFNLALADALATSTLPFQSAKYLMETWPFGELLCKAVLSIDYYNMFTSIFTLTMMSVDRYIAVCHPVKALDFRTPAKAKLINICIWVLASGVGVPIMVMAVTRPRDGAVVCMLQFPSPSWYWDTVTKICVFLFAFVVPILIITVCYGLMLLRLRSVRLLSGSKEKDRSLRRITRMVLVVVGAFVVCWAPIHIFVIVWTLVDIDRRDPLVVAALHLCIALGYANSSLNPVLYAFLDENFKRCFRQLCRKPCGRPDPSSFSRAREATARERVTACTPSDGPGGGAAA
Chain of Endoplasmic reticulum aminopeptidase 1 (Q9NZ08 whole entry): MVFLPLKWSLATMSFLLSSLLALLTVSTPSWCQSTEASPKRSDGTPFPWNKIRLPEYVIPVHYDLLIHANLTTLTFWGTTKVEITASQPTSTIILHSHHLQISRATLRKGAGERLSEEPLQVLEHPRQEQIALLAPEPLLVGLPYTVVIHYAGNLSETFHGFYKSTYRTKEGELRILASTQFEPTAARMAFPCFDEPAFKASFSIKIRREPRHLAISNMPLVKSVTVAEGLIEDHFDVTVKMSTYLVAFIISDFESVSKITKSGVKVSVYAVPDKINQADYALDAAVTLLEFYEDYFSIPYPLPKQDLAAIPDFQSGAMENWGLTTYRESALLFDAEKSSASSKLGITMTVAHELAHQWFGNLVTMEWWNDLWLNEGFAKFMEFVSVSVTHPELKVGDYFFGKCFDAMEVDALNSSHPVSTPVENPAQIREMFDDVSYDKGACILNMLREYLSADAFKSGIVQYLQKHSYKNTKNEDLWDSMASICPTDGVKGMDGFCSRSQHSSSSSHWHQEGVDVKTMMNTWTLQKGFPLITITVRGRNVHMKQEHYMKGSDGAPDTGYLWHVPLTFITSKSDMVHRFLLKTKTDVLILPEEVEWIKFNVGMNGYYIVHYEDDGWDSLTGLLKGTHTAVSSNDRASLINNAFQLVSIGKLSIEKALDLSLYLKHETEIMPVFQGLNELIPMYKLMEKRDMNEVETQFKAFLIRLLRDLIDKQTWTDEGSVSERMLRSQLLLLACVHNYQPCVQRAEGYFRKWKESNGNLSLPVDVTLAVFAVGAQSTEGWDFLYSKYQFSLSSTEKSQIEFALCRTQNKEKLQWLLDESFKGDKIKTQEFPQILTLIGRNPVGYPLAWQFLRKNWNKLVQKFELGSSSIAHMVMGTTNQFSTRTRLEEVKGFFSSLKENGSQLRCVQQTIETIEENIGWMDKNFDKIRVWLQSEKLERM

In the case of `COC(=O)c1cc(Br)cnc1N1CCC(N[C@@H]2CCCC[C@@H]2O)CC1`, the IC50 (Mu-type opioid receptor) is reported as 19 µM (inactive), the IC50 [1] is reported as > 50 µM (inactive) and the IC50 [2] is reported as 0.579 µM (active).
In the case of `C/C=C/c1ccc([C@@H]2[C@@H]3CN(C(=O)Nc4ccc(C(F)(F)F)cc4)C[C@H]2N3)cc1`, the AC50 [3] is reported as 10.3 µM (active), the AC50 [4] is reported as 6.85 µM (active) and the AC50 [5] is reported as 18.1 µM (active). For the same compound, the AC50 [6] was 16.6 µM (active) and the AC50 [7] was 16.7 µM (active).
With `Cc1c(C)c2ccc(O)c(CN3CCN(C)CC3)c2oc1=O` the AC50 [8] was 10.8 µM (active).
For `COCCn1c(=N)c(S(=O)(=O)c2ccc(F)cc2)cc2c(=O)n3ccccc3nc21`, the AC50 (cells [9]) was 1.5 µM (active) and the AC50 (cells [10]) was > 52 µM (inactive).
For `Cc1nc(N/N=C/c2ccccn2)sc1C`, the AC50 [11] was 13.5 µM (active), the AC50 [12] was 0.949 µM (active) and the AC50 [13] was 0.573 µM (active). The AC50 [14] was 2.7 µM (active), the AC50 (INS1) was 3.83 µM (active) and the AC50 [15] was 3.74 µM (active). For the same compound, the AC50 [16] was 6.02 µM (active), the AC50 [17] was 5.22 µM (active) and the AC50 [18] was 18.8 µM (active). For the same compound, the AC50 [19] was 7.53 µM (active) and the AC50 [20] was 6.45 µM (active).
In the case of `c1ccc(Nc2ccnc(Nc3ccccc3)n2)cc1`, the AC50 [21] is reported as 26 µM (active) and the EC50 [22] is reported as > 100 µM (inactive).
In the case of `CO[C@H]1CN(C)C(=O)c2ccc(NC(=O)Nc3ccc(Cl)c(Cl)c3)cc2OC[C@H](C)NC[C@@H]1C`, the AC50 [23] is reported as 53.6 µM (active), the AC50 [24] is reported as 18.4 µM (active) and the AC50 [25] is reported as 11.2 µM (active).
In the case of `COC(=O)C1=C(C)N(Cc2ccc(Cl)cc2)C(=S)NC1c1ccc(F)cc1` (stereo not given), the AC50 (Cryptococcus neoformans [26]) is reported as 43 µM (active), the AC50 (Cryptococcus neoformans [27]) is reported as 35.4 µM (active) and the AC50 (Cryptococcus neoformans [27]; Cryptococcus neoformans) is reported as 23.6 µM (active).
